The values below come from patent US12180226B2, “Spirotricycle RIPK1 inhibitors and methods of uses thereof” (Merck Sharp & Dohme LLC, priority 2021, dated 2024).

Where a name gives a salt, the structure may show the parent alone.

RIPK1 (recombinant GST-RIPK1 kinase domain, residues 1-327), sequence (Q13546 1-327): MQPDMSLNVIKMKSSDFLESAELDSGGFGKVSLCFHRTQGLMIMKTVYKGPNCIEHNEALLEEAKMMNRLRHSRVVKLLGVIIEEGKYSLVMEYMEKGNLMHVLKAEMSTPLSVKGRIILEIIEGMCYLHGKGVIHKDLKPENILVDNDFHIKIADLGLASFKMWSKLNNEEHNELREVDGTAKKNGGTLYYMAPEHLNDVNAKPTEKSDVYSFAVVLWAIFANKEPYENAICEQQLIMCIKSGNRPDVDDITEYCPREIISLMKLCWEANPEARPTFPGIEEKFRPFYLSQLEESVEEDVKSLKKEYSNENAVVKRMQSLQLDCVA

In the first assay the target is RIPK1 (recombinant GST-RIPK1 kinase domain, residues 1-327) (Homo sapiens (Human), UniProt Q13546). Nature of the assay: RIPK1-ADP-Glo Enzymatic Assay. Type of assay: biochemical. The settings on record: ADP-Glo; 25 nM GST-RIPK1, 300 μM ATP; assay lower limit ~25 nM; read-out: RIPK1 V0 Ec50. The gist of the method:
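Inhibition of ADP formation was measured after compound and enzyme (25 nM) were pre-incubated for 30 minutes at ambient temperature and the kinase reaction ran for 150 minutes at 300 μM ATP with dephosphorylated MBP substrate. EC50 values come from ten-point curves fitted non-linearly.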
Background: ADP-Glo first removes unused ATP, then detects ADP through luciferase.
In general, EC50 refers to the concentration that produces a half-maximal response. Regarding `NC(=O)c1ccc(N2CCC3(CC2)O[C@@H]2CC[C@@H](c4ccccc4)N2C3=O)n2nccc12` [Example 4.155, 7-[(5′S,7a′R)-3′-oxo-5′-phenyltetrahydro-1H,3′H-spiro[piperidine-4,2′-pyrrolo[2,1-b] [1,3]oxazol]-1-yl]pyrazolo[1,5-a] pyridine-4-carboxamide], the 50% effective concentration (EC50) was under 25 nM. Regarding `N#Cc1ccc(N2CCC3(O[C@@H]4CC[C@@H](c5ccccc5)N4C3=O)C(F)C2)n2ncnc12` (stereo partly drawn) [Example 4.258, 5-[(5′S,7a′R)-3-fluoro-3′-oxo-5′-phenyltetrahydro-1H,3′H-spiro[piperidine-4,2′-pyrrolo[2,1-b] [1,3]oxazol]-1-yl][1,2,4]triazolo[1,5-a] pyridine-8-carbonitrile], the EC50 was under 25 nM.

`Cc1nnc(N2CC3(C2)O[C@@H]2CC[C@@H](c4ccccc4F)N2C3=O)o1` [Example 4.273, (5′S,7a′R)-5′-(2-fluorophenyl)-1-(5-methyl-1,3,4-oxadiazol-2-yl)tetrahydro-3′H-spiro[azetidine-3,2′-pyrrolo[2,1-b] [1,3]oxazol]-3′-one]: the EC50 amounted to 566 nM. Regarding `N#Cc1cc(N2CCC3(CC2)C[C@@H]2OC[C@@H](c4ccccc4)N2C3=O)ncn1` [Example 4.113, 6-[(3′R,7a′S)-5′-oxo-3′-phenyltetrahydro-1H,5′H-spiro[piperidine-4,6′-pyrrolo[2,1-b] [1,3]oxazol]-1-yl]pyrimidine-4-carbonitrile], the concentration giving a half-maximal response (EC50) came out at 309 nM. Still for that read-out and setting: under `CC1CN(c2cccc3ncnn23)CCC12O[C@@H]1CC[C@@H](c3ccccc3)N1C2=O` (stereo partly drawn) [Example 4.244, (4R,5′S,7a′R)-3-methyl-5′-phenyl-1-([1,2,4]triazolo[1,5-a]pyridin-5-yl)tetrahydro-3′H-spiro[piperidine-4,2′-pyrrolo[2,1-b] [1,3]oxazol]-3′-one] stands under 25 nM; under `O=C(c1ccccc1)N1CCC2(CC1)O[C@@H]1CC[C@@H](c3cccc(F)c3)N1C2=O` [Example 1.5, (5′S,7a′R)-1-(benzenecarbonyl)-5′-(3-fluorophenyl)tetrahydro-3′H-spiro[piperidine-4,2′-pyrrolo[2,1-b] [1,3]oxazol]-3′-one], under 25 nM; under `Cn1ccc(C(=O)N2CCC3(CC2)O[C@@H]2CC[C@@H](c4cc(F)cc(F)c4)N2C3=O)n1` [Example 5.39, (5′S,7a′R)-5′-(3,5-difluoro-phenyl)-1-(1-methyl-1H-pyrazole-3-carbonyl)tetra-hydro-3′H-spiro[piperi-dine-4,2′-pyrrolo[2,1-b]oxazol]-3′-one], 172 nM. Same read-out and setting: under `O=C1N2[C@@H](CC[C@H]2c2ccccc2)OC12CN(c1ncnc3ccnn13)C2` [Example 4.137, (5′S,7a′R)-5′-phenyl-1-(pyrazolo[1,5-a] [1,3,5]triazin-4-yl)tetrahydro-3′H-spiro[azetidine-3,2′-pyrrolo[2,1-b] [1,3]oxazol]-3′-one] stands 235 nM. On the same count and under the same terms, under `O=C1N2[C@@H](CC[C@H]2c2ccccc2)OC12CCN(c1ccc(-c3ncco3)c3ccnn13)CC2` [Example 21.22, (5′S,7a′R)-1-[4-(1,3-oxazol-2-yl)pyrazolo[1,5-a]pyridin-7-yl]-5′-phenyltetrahydro-3′H-spiro[piperidine-4,2′-pyrrolo[2,1-b][1,3]oxazol]-3′-one] stands under 25 nM; under `O=C1N2[C@@H](CC[C@H]2c2cc(F)cc(F)c2)OC12CCN(c1ccc(OCC(F)F)c3ccnn13)CC2` [Example 19.4, (5′S,7a′R)-1-(4-(2,2-difluoroethoxy)pyrazolo [1,5-a]pyridin-7-yl)-5′-(3,5-difluorophenyl)tetrahydro-3′H-spiro[piperidine-4,2′-pyrrolo[2,1-b]oxazol]-3′-one, TFA salt], 32 nM. `O=C1N2[C@@H](CC[C@H]2c2ccccc2)SC12CCN(c1ccnc3c(F)cnn13)CC2` [Example 4.132, (5′S,7a′R)-1-(3-fluoropyrazolo[1,5-a]pyrimidin-7-yl)-5′-phenyltetrahydro-3′H-spiro[piperidine-4,2′-pyrrolo[2,1-b]thiazol]-3′-one]: the concentration for a half-maximal effect (EC50) was under 25 nM.

For the compound `Cc1cc(N2CCC3(CC2)O[C@@H]2CC[C@@H](c4ccccc4)N2C3=O)nc(C#N)n1` [Example 4.2, 4-methyl-6-[(5′S,7a′R)-3′-oxo-5′-phenyltetrahydro-1H,3′H-spiro[piperidine-4,2′-pyrrolo[2,1-b] [1,3]oxazol]-1-yl]pyrimidine-2-carbonitrile], the concentration for a half-maximal effect (EC50) was under 25 nM.

For `O=C1N2[C@@H](CC[C@H]2c2ccccc2)OC12CCN(c1nc3ccncc3o1)CC2` [Example 4.158, (5′S,7a′R)-1-([1,3]oxazolo[5,4-c]pyridin-2-yl)-5′-phenyltetrahydro-3′H-spiro[piperidine-4,2′-pyrrolo[2,1-b] [1,3]oxazol]-3′-one], the 50% effective concentration (EC50) turned out to be 50.8 nM.

For `O=C1N2C(=NC13CCN(c1cc(-c4cnn(C(F)F)c4)ncn1)CC3)CC[C@H]2c1cc(F)cc(F)c1` [Example 10.3, (S)-1-(6-(1-(difluoromethyl)-1H-pyrazol-4-yl)pyrimidin-4-yl)-5′-(3,5-difluorophenyl)-6′,7′-dihydro-3′H,5′H-spiro[piperidine-4,2′-pyrrolo[1,2-a]imidazol]-3′-one], the EC50 turned out to be 355 nM. On the same count and under the same terms, under `O=C(c1ccccc1)N1CCC2(CC1)O[C@@H]1CC[C@@H](c3cc(F)cc(F)c3)N1C2=O` [Example 1.1, (5′S,7a′R)-1-Benzoyl-5′-(3,5-difluorophenyl)tetrahydro-3′H-spiro[piperidine-4,2′-pyrrolo[2,1-b]oxazol]-3′-one] stands under 25 nM; under `O=C(c1ncn2ccccc12)N1CCC2(CC1)O[C@@H]1CC[C@@H](c3cc(F)cc(F)c3)N1C2=O` [Example 5.74, (5′S,7a′R)-5′-(3,5-difluoro-phenyl)-1-(imidazo[1,5-a]-pyridine-1-carbonyl)tetra-hydro-3′H-spiro[piperi-dine-4,2′-pyrrolo[2,1-b]oxazol]-3′-one], 42.4 nM. On the same count and under the same terms, the result for `N#Cc1cccc(C(=O)N2CCC3(CC2)O[C@@H]2CC[C@@H](c4ccccc4)N2C3=O)c1F` [Example 6.140, 2-fluoro-3-[(5′S,7a′R)-3′-oxo-5′-phenyltetra-hydro-1H,3′H-spiro [piperidine-4,2′-pyrrolo[2,1-b][1,3]oxazole]-1-carbonyl] benzonitrile] reads 47.1 nM. Still for that read-out and setting: under `Cc1cnc(-c2ccc(N3CCC4(CC3)O[C@@H]3CC[C@@H](c5ccccc5)N3C4=O)n3nccc23)o1` [Example 21.17, (5′S,7a′R)-1-[4-(5-methyl-1,3-oxazol-2-yl)pyrazolo[1,5-a]pyridin-7-yl]-5′-phenyltetrahydro-3′H-spiro[piperidine-4,2′-pyrrolo[2,1-b][1,3]oxazol]-3′-one] stands under 25 nM; under `N#Cc1cnc(N2CCC3(CC2)O[C@@H]2CC[C@@H](c4ccccc4)N2C3=O)c(F)c1` [Example 4.72, 5-fluoro-6-[(5′S,7a′R)-3′-oxo-5′-phenyltetrahydro-1H,3′H-spiro[piperidine-4,2′-pyrrolo[2,1-b] [1,3]oxazol]-1-yl]pyridine-3-carbonitrile], 29.8 nM.

The same assay, now with this note: RIPK1 V0 Ec50, ADP-Glo; 25 nM GST-RIPK1, 300 μM ATP; assay lower limit ~25 nM.
Consider `N#Cc1ccc(N2CCC3(CC2)O[C@@H]2CC[C@@H](c4cc(F)cc(F)c4)N2C3=O)cc1Cl` [Example 4.20, 2-chloro-4-[(5′S,7a′R)-5′-(3,5-difluorophenyl)-3′-oxotetrahydro-1H,3′H-spiro[piperidine-4,2′-pyrrolo[2,1-b] [1,3]oxazol]-1-yl]benzonitrile], for which the concentration giving a half-maximal response (EC50) was under 25 nM.
